Measured values reported in paper PMC6199744, “Development of Chemical Proteomics for the Folateome and Analysis of the Kinetoplastid Folateome” (ACS Infectious Diseases, 2018).
Read-outs that look alike come from different tables or passages of the source.

Tests used:
Assay type in all cases: binding
[1] = biological target: T1, HeLa cell extract proteins (Homo sapiens, UniProt O15260)
T1 construct: endogenous in cells; host or cells: HeLa cell extract

[2] = biological target: T2, HeLa cell extract proteins (Homo sapiens, UniProt O43865)
T2 construct: endogenous in cells; host or cells: HeLa cell extract
T2 sequence (O43865 whole entry): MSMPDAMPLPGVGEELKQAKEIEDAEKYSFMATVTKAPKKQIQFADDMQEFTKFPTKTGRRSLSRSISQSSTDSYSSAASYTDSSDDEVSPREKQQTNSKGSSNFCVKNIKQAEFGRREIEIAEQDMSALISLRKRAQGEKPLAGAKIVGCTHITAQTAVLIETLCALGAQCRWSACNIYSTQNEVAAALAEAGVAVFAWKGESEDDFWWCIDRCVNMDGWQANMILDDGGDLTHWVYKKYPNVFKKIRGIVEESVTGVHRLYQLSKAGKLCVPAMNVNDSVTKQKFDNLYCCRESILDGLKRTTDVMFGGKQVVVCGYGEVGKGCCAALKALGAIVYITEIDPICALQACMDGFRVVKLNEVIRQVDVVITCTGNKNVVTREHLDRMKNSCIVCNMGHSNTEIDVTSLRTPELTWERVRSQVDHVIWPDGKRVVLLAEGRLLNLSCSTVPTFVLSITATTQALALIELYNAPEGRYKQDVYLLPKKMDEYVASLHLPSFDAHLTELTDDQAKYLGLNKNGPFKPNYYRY

[3] = biological target: T3, HeLa cell extract proteins (Homo sapiens, UniProt O75340)
T3 construct: endogenous in cells; host or cells: HeLa cell extract
T3 sequence (O75340 whole entry): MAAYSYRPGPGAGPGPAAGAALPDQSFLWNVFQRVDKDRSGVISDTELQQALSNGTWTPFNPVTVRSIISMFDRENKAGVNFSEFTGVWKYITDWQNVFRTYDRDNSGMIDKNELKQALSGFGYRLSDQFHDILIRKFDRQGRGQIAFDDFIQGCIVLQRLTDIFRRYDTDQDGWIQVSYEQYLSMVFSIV

[4] = biological target: T4, HeLa cell extract proteins (Homo sapiens, UniProt P04792)
T4 construct: endogenous in cells; host or cells: HeLa cell extract
T4 sequence (P04792 whole entry): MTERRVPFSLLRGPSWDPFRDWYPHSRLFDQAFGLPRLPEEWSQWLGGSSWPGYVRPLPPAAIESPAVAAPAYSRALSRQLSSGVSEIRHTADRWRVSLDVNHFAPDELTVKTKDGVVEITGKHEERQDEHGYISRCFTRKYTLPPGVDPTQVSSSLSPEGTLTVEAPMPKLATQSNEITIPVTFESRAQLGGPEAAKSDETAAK

[5] = biological target: T5, HeLa cell extract proteins (Homo sapiens, UniProt P25205)
T5 construct: endogenous in cells; host or cells: HeLa cell extract
T5 sequence (P25205 1-808): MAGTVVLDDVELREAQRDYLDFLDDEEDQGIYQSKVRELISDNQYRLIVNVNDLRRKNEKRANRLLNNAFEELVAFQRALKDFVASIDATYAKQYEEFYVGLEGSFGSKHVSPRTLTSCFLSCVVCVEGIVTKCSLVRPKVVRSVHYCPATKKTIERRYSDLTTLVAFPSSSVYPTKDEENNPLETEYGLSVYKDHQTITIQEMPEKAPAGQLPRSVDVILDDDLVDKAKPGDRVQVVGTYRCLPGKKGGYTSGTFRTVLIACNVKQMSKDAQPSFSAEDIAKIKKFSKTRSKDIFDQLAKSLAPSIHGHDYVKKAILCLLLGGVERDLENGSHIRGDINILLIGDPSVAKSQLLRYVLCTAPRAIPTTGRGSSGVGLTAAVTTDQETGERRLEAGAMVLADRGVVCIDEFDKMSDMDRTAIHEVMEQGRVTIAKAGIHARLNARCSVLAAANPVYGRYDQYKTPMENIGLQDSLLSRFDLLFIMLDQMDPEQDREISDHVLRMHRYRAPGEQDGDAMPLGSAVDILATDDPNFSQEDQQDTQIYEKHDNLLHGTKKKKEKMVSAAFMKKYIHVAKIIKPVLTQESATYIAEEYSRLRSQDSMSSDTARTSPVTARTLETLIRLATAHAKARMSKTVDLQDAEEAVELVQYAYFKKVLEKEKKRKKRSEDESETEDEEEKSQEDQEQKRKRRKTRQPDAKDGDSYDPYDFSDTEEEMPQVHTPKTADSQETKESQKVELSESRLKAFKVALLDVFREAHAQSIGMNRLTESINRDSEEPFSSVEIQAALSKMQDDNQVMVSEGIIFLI

[6] = biological target: T6, HeLa cell extract proteins (Homo sapiens, UniProt P28066)
T6 construct: endogenous in cells; host or cells: HeLa cell extract
T6 sequence (P28066 1-241): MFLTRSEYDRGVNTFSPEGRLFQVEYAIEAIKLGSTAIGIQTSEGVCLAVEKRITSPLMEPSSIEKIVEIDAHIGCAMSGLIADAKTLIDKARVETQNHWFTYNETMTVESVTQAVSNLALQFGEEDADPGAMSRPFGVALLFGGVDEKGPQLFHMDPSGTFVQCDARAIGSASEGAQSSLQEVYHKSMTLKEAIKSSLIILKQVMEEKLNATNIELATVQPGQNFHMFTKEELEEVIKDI

[7] = biological target: T7, HeLa cell extract proteins (Homo sapiens, UniProt P52209)
T7 construct: endogenous in cells; host or cells: HeLa cell extract
T7 sequence (P52209 1-483): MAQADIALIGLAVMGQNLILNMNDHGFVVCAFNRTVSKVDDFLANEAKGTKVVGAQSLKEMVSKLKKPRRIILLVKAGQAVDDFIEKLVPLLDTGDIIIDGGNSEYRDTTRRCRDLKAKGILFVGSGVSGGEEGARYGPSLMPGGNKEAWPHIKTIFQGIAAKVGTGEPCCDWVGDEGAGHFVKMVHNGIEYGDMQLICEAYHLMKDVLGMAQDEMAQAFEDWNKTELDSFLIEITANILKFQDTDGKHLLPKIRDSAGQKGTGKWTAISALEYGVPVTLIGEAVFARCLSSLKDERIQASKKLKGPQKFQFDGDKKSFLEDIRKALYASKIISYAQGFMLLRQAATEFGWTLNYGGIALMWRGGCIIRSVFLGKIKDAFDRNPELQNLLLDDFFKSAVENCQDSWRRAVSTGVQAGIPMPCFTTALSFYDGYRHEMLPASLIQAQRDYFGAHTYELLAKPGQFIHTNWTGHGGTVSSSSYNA

[8] = biological target: T8, HeLa cell extract proteins (Homo sapiens, UniProt P61160)
T8 construct: endogenous in cells; host or cells: HeLa cell extract

[9] = biological target: T9, HeLa cell extract proteins (Homo sapiens, UniProt Q9Y5L0)
T9 construct: endogenous in cells; host or cells: HeLa cell extract
T9 sequence (Q9Y5L0 1-923): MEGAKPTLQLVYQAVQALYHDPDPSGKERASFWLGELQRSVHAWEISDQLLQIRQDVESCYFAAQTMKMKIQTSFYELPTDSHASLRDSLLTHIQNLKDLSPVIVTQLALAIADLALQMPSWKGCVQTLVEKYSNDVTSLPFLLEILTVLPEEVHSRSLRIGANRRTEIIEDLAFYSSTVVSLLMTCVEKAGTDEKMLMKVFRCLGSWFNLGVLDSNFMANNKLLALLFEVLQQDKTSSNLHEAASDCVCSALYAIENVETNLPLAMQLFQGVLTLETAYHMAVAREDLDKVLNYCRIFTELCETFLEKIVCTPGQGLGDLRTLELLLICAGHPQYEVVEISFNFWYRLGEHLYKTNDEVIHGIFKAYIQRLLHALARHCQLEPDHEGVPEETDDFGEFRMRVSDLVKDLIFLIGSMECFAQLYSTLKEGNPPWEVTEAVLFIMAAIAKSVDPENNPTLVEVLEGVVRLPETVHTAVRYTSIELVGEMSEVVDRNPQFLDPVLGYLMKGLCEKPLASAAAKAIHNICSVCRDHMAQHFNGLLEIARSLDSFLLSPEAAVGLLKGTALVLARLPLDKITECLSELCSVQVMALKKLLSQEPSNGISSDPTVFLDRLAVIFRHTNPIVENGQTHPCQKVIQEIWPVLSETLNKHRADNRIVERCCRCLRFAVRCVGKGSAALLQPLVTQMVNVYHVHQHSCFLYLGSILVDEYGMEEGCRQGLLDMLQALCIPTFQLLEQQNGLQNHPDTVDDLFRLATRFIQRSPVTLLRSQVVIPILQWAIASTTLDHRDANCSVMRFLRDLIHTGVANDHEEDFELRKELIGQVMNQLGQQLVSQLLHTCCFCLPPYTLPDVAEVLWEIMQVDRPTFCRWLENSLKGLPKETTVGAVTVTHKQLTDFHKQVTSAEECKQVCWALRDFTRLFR

[10] = HeLa, protein PGD (56 KDA PROTEIN.)
[11] = HeLa, protein PDCD6 (PROGRAMMED CELL DEATH PROTEIN 6)

T1 sequence (O15260 whole entry): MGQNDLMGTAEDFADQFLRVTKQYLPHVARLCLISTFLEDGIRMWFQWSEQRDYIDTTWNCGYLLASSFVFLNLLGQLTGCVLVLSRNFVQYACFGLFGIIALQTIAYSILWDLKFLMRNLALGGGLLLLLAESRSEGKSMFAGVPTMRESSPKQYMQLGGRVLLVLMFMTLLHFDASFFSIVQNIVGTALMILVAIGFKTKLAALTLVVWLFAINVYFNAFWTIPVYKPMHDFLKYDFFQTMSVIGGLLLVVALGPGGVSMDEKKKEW

Nc1nc2cccc(-c3ccccc3)c2n1Cc1ccc(Cl)c(Cl)c1 [compound 3]
fold changes relative to vehicle control ([1]; captured protein SURF4, HeLa): 1.03
fold changes relative to vehicle control ([2]; protein AHCYL1, HeLa): 0.94
fold changes relative to vehicle control ([3]; HeLa, protein PDCD6): 1.07
fold changes relative to vehicle control ([4]; protein HSPB1, HeLa): 0.88
fold changes relative to vehicle control ([5]; protein MCM3, HeLa): 1.29
fold changes relative to vehicle control ([6]; HeLa, protein PSMA5): 1
fold changes relative to vehicle control [7, 10]: 0.86 fold
fold changes relative to vehicle control ([8]; protein ACTR2, HeLa): 1.13
fold changes relative to vehicle control ([9]; HeLa, protein TNPO3): 1.01

Nc1nc2[nH]cc(CCc3ccc(C(=O)N[C@@H](CCC(=O)O)C(=O)O)cc3)c2c(=O)[nH]1 [PTX, pemetrexed]
fold changes relative to vehicle control [1]: 0.9
fold changes relative to vehicle control [2]: 1.08
fold changes relative to vehicle control [3]: 1.06
fold changes relative to vehicle control [4]: 1
fold changes relative to vehicle control [5]: 1.03
fold changes relative to vehicle control [6]: 1.04
fold changes relative to vehicle control [7]: 1.17
fold changes relative to vehicle control [8]: 1.08
fold changes relative to vehicle control [9]: 0.96

Nc1nc2c(c(=O)[nH]1)N(C=O)C(CNc1ccc(C(=O)N[C@@H](CCC(=O)O)C(=O)O)cc1)CN2 (stereo partly drawn) [LEU, leucovorin]
fold changes relative to vehicle control ([1]; HeLa, captured protein SURF4): 0.86
fold changes relative to vehicle control ([2]; HeLa, captured protein AHCYL1): 1.12
fold changes relative to vehicle control [3, 11]: 1.14
fold changes relative to vehicle control ([4]; HeLa, protein HSPB1): 1.01
fold changes relative to vehicle control ([5]; HeLa, protein MCM3): 0.91
fold changes relative to vehicle control ([6]; HeLa, captured protein PSMA5): 1.03
fold changes relative to vehicle control ([7]; protein PGD, HeLa): 0.97
fold changes relative to vehicle control ([8]; HeLa, protein ACTR2): 0.99
fold changes relative to vehicle control ([9]; HeLa, captured protein TNPO3): 0.95

CCCCCCOc1cccc(Cc2cnc(N)nc2N)c1 [compound 2]
fold changes relative to vehicle control ([1]; captured protein SURF4, HeLa): 1
fold changes relative to vehicle control ([2]; protein AHCYL1, HeLa): 1.59
fold changes relative to vehicle control ([3]; HeLa, protein PDCD6): 0.92
fold changes relative to vehicle control ([4]; protein HSPB1, HeLa): 1.38
fold changes relative to vehicle control ([5]; protein MCM3, HeLa): 1.38
fold changes relative to vehicle control ([6]; HeLa, protein PSMA5): 1.19
fold changes relative to vehicle control [7, 10]: 2.49 fold
fold changes relative to vehicle control ([8]; protein ACTR2, HeLa): 1.44
fold changes relative to vehicle control ([9]; HeLa, protein TNPO3): 0.9

NCCOCCOCC(=O)Nc1nc2ncc(CNc3ccc(C(=O)NC(CCC(=O)O)C(=O)O)cc3)nc2c(=O)[nH]1 (stereo not drawn) [compound 6]
fold changes relative to vehicle control ([1]; HeLa, captured protein SURF4): 0.95
fold changes relative to vehicle control ([2]; HeLa, captured protein AHCYL1): 1.25
fold changes relative to vehicle control [3, 11]: 0.98
fold changes relative to vehicle control ([4]; HeLa, protein HSPB1): 1.07
fold changes relative to vehicle control ([5]; HeLa, protein MCM3): 1.01
fold changes relative to vehicle control ([6]; HeLa, captured protein PSMA5): 1.08
fold changes relative to vehicle control ([7]; protein PGD, HeLa): 1.35
fold changes relative to vehicle control ([8]; HeLa, protein ACTR2): 1.18
fold changes relative to vehicle control ([9]; HeLa, captured protein TNPO3): 1.04

CCCCCCOc1ccc(Cc2cnc(N)nc2N)cc1 [compound 1]
fold changes relative to vehicle control ([1]; captured protein SURF4, HeLa): 0.9
fold changes relative to vehicle control ([2]; protein AHCYL1, HeLa): 1.1
fold changes relative to vehicle control ([3]; HeLa, protein PDCD6): 1.03
fold changes relative to vehicle control ([4]; protein HSPB1, HeLa): 1.09
fold changes relative to vehicle control ([5]; protein MCM3, HeLa): 0.94
fold changes relative to vehicle control ([6]; HeLa, protein PSMA5): 1.05
fold changes relative to vehicle control [7, 10]: 1.44 fold
fold changes relative to vehicle control ([8]; protein ACTR2, HeLa): 1.06
fold changes relative to vehicle control ([9]; HeLa, protein TNPO3): 0.93

NCCCNc1ccc(C(=O)NC(CCC(=O)O)C(=O)O)cc1 (stereo not drawn) [compound 7]
fold changes relative to vehicle control ([1]; HeLa, captured protein SURF4): 0.92
fold changes relative to vehicle control ([2]; HeLa, captured protein AHCYL1): 1.03
fold changes relative to vehicle control [3, 11]: 1.05
fold changes relative to vehicle control ([4]; HeLa, protein HSPB1): 0.94
fold changes relative to vehicle control ([5]; HeLa, protein MCM3): 0.93
fold changes relative to vehicle control ([6]; HeLa, captured protein PSMA5): 0.99
fold changes relative to vehicle control ([7]; protein PGD, HeLa): 0.86
fold changes relative to vehicle control ([8]; HeLa, protein ACTR2): 0.97
fold changes relative to vehicle control ([9]; HeLa, captured protein TNPO3): 0.96
